Experiments:
Format in all cases: in vivo
[1] = tested on: barnyardgrass (Echinochloa crus-galli); assay: Test C flooded paddy test; settings: for Barnyardgrass plant response rating: Flooded Paddy, scale 0 to 100, 0 no effect, 100 complete control; for Plant response rating, Barnyardgrass: flooded paddy test, scale 0 to 100 (0 no effect, 100 complete control)
Summary of the method: (§1)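 Ratings come from visual comparison with control plants after 12 to 14 days in the greenhouse. Each species was at the 2-leaf stage when the flooded paddy was treated. Scores run from 0, meaning no effect, to 100, meaning complete control.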

[2] = tested on: smallflower flatsedge (Cyperus difformis); assay: Test C flooded paddy test; settings: for Flatsedge plant response rating: Flooded Paddy, scale 0 to 100, 0 no effect, 100 complete control; for Plant response rating, Flatsedge: flooded paddy test, scale 0 to 100 (0 no effect, 100 complete control)
Summary of the method: as §1

[3] = tested on: duck salad (Heteranthera limosa); assay: Test C flooded paddy test; settings: for Ducksalad plant response rating: Flooded Paddy, scale 0 to 100, 0 no effect, 100 complete control; for Plant response rating, Ducksalad: flooded paddy test, scale 0 to 100 (0 no effect, 100 complete control)
Summary of the method: as §1

[4] = tested on: rice (Oryza saliva); assay: Test C flooded paddy test; settings: for Rice plant response rating: Flooded Paddy, scale 0 to 100, 0 no effect, 100 complete control; for Plant response rating, Rice: flooded paddy test, scale 0 to 100 (0 no effect, 100 complete control)
Summary of the method: as §1

[5] = tested on: Surinam grass (Brachiaria decumbens); assay: Test B preemergence
Summary of the method: (§2)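 Greenhouse test: chemicals are formulated in a surfactant-containing non-phytotoxic solvent and applied either preemergence to planted seeds or postemergence to plants 2 to 18 cm tall. Response is rated visually versus controls after 13 to 15 days, 0 meaning no effect and 100 complete control.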

[6] = tested on: pigweed (Amaranthus retroflexus); assay: Test B preemergence
Summary of the method: as §2

[7] = tested on: velvetleaf (Abutilon theophrasti); assay: Test B preemergence
Summary of the method: as §2

[8] = tested on: corn (Zea mays); assay: Test B preemergence
Summary of the method: as §2

[9] = tested on: barnyardgrass (Echinochloa crus-galli); assay: Test B preemergence
Summary of the method: as §2

[10] = tested on: lambsquarters (Chenopodium album); assay: Test B preemergence
Summary of the method: as §2

[11] = tested on: morning glory (Ipomoea hederacea); assay: Test B preemergence
Summary of the method: as §2

[12] = tested on: rice (Oryza saliva); assay: Test B preemergence
Summary of the method: as §2

[13] = tested on: cocklebur (Xanthium strumarium); assay: Test B preemergence
Summary of the method: as §2

[14] = tested on: giant foxtail (Setaria faberii); assay: Test B preemergence
Summary of the method: as §2

[15] = tested on: crabgrass (Digitaria sanguinalis); assay: Test B preemergence
Summary of the method: as §2

[16] = tested on: blackgrass (Alopecurus myosuroides); assay: Test B postemergence
Summary of the method: as §2

[17] = tested on: Surinam grass (Brachiaria decumbens); assay: Test B postemergence
Summary of the method: as §2

[18] = tested on: pigweed (Amaranthus retroflexus); assay: Test B postemergence
Summary of the method: as §2

[19] = tested on: velvetleaf (Abutilon theophrasti); assay: Test B postemergence
Summary of the method: as §2

[20] = tested on: corn (Zea mays); assay: Test B postemergence
Summary of the method: as §2

[21] = tested on: barnyardgrass (Echinochloa crus-galli); assay: Test B postemergence
Summary of the method: as §2

[22] = tested on: lambsquarters (Chenopodium album); assay: Test B postemergence
Summary of the method: as §2

[23] = tested on: wheat (Triticum aestivum); assay: Test B postemergence
Summary of the method: as §2

[24] = tested on: morning glory (Ipomoea hederacea); assay: Test B postemergence
Summary of the method: as §2

[25] = tested on: cocklebur (Xanthium strumarium); assay: Test B postemergence
Summary of the method: as §2

[26] = tested on: wild oat (Avena fatua); assay: Test B postemergence
Summary of the method: as §2

[27] = tested on: giant foxtail (Setaria faberii); assay: Test B postemergence
Summary of the method: as §2

[28] = tested on: crabgrass (Digitaria sanguinalis); assay: Test B postemergence
Summary of the method: as §2

[29] = Preemergence, Rate 500 g/ha, scale 0 to 100, 0 no effect, 100 complete control
[30] = preemergence, Rate 125 g/ha, scale of 0 to 100 where 0 is no effect and 100 is complete control, 13 to 15 days
[31] = Rate 125 g/ha, scale 0 to 100, 0 no effect, 100 complete control
[32] = Rate 500 g/ha, scale 0 to 100, 0 is no effect, 100 is complete control, 13 to 15 days

## Cc1cccc(N2CCC(n3ccc(C(C)(C)C)n3)C2=O)c1 (stereo not shown) [Compound 112]
[1]; Rate 250 g/ha
  Barnyardgrass plant response rating: 20
[1]; Rate 500 g/ha
  Barnyardgrass plant response rating: 60
[1]; Rate 62 g/ha
  Plant response rating, Barnyardgrass: 0
[1]; Rate 125 g/ha
  Plant response rating, Barnyardgrass: 0
[2]; Rate 250 g/ha
  Flatsedge plant response rating: 100
[2]; Rate 500 g/ha
  Flatsedge plant response rating: 100
[2]; Rate 62 g/ha
  Plant response rating, Flatsedge: 20
[2]; Rate 125 g/ha
  Plant response rating, Flatsedge: 50
[3]; Rate 250 g/ha
  Ducksalad plant response rating: 20
[3]; Rate 500 g/ha
  Ducksalad plant response rating: 30
[3]; Rate 62 g/ha
  Plant response rating, Ducksalad: 0
[3]; Rate 125 g/ha
  Plant response rating, Ducksalad: 0
[4]; Rate 250 g/ha
  Rice plant response rating: 20
[4]; Rate 500 g/ha
  Rice plant response rating: 70
[4]; Rate 62 g/ha
  Plant response rating, Rice: 0
[4]; Rate 125 g/ha
  Plant response rating, Rice: 0
[5]; [29]
  Plant response rating, Surinam grass: 30
[5]; [30]
  Plant response rating, Surinam grass: 10
[6]; [29]
  Plant response rating, Pigweed: 100
[6]; [30]
  Plant response rating, Pigweed: 100
[7]; [29]
  Plant response rating, Velvetleaf: 0
[7]; [30]
  Plant response rating, Velvetleaf: 0
[8]; [29]
  Plant response rating, Corn: 30
[8]; [30]
  Plant response rating, Corn: 0
[9]; [29]
  Plant response rating, Barnyardgrass: 100
[9]; [30]
  Plant response rating, Barnyardgrass: 90
[10]; [29]
  Plant response rating, Lambsquarters: 100
[10]; [30]
  Plant response rating, Lambsquarters: 100
[11]; [29]
  Plant response rating, Morningglory: 30
[11]; [30]
  Plant response rating, Morningglory: 30
[12]; [29]
  Plant response rating, Rice: 100
[12]; [30]
  Plant response rating, Rice: 0
[13]; [29]
  Plant response rating, Cocklebur: 0
[13]; [30]
  Plant response rating, Cocklebur: 0
[14]; [29]
  Plant response rating, Foxtail, Giant: 100
[14]; [30]
  Plant response rating, Foxtail, Giant: 100
[15]; [29]
  Plant response rating, Crabgrass: 100
[15]; [30]
  Plant response rating, Crabgrass: 100
[16]; [31]
  Plant response rating, Blackgrass: 0
[16]; [32]
  Plant response rating, Blackgrass: 0
[17]; [31]
  Plant response rating, Surinam grass: 0
[17]; [32]
  Plant response rating, Surinam grass: 100
[18]; [31]
  Plant response rating, Pigweed: 60
[18]; [32]
  Plant response rating, Pigweed: 80
[19]; [31]
  Plant response rating, Velvetleaf: 0
[19]; [32]
  Plant response rating, Velvetleaf: 0
[20]; [31]
  Plant response rating, Corn: 0
[20]; [32]
  Plant response rating, Corn: 0
[21]; [31]
  Plant response rating, Barnyardgrass: 0
[21]; [32]
  Plant response rating, Barnyardgrass: 20
[22]; [31]
  Plant response rating, Lambsquarters: 30
[22]; [32]
  Plant response rating, Lambsquarters: 30
[23]; [31]
  Plant response rating, Wheat: 40
[23]; [32]
  Plant response rating, Wheat: 40
[24]; [31]
  Plant response rating, Morningglory: 20
[24]; [32]
  Plant response rating, Morningglory: 50
[25]; [31]
  Plant response rating, Cocklebur: 0
[25]; [32]
  Plant response rating, Cocklebur: 0
[26]; [31]
  Plant response rating, Wild Oat: 30
[26]; [32]
  Plant response rating, Wild Oat: 60
[27]; [31]
  Plant response rating, Foxtail, Giant: 0
[27]; [32]
  Plant response rating, Foxtail, Giant: 0
[28]; [31]
  Plant response rating, Crabgrass: 30
[28]; [32]
  Plant response rating, Crabgrass: 30

— patent US7138361B2, “Herbicidal heterocycles” (E. I. du Pont de Nemours and Company, priority 2000, dated 2006)
